Where two headings read alike, the source gives them in different places.
Experiments:
[1] = Pharmacokinetics of Compound I in monkey after intravenous and oral administration (plasma LC/MS/MS, noncompartmental analysis); format: in vivo, male rhesus monkeys; conditions: mean ± SD; for Vd: iv
Experimental: (§1) The following experiments were conducted using samples of Compound I prepared by a method disclosed in U.S. Pat. No. 7,763,608, which is incorporated by reference in its entirety.
(§2) For the dog and monkey study, Compound I was also used. An IV and PO dose of Compound I (1.0 and 5.0 mg/kg, respectively) was prepared. The IV dose was formulated similarly to that used in the rat study (50% PEG300 in water). The PO dose was suspended in 0.5% methylcellulose at a concentration of 1.0 mg/mL with a final pH of approximately 3.50.
(§3) A total of six male Sprague-Dawley rats (n=3/dosing group) from Charles River Laboratories (Hollister, Calif.), three male beagle dogs from Marshall BioResources (North Rose, N.Y.) and three male rhesus monkeys were utilized. All surgical procedures in rat (femoral and jugular vein catheterizations) were performed 8 days prior to utilization in the study and rats were acclimated in-house 5 days prior to utilization. Dogs were acclimated in-house at least seven days prior to utilization and were returned to the colony at the completion of the study. Monkey studies were conducted by an off-site contract laboratory.
(§4) All animals were fasted from the afternoon prior to study initiation to two hours post-dose (approximately 18 hours). Water was provided ad libitum. All animal rooms were on a 12 hour light-dark cycles (6 A.M. to 6 P.M.). On the morning of experimentation, animals were weighed. Rat femoral and jugular (IV only) vein blood lines were exteriorized and attached to access ports. Dogs were weighed and shaved at blood sampling and IV dosing sites (along both cephalic and saphenous veins).
(§5) All animals were dosed based on individual weights with a PO gavage volume of 5.0 mL/kg and an IV bolus dose volume of 1.0 mL/kg. Blood samples were obtained on 3.8% TSC (1:10 dilution) over a 24, 56, and 96 hour period post-dosing for the rat, dog, and monkey, respectively. Blood samples were centrifuged for platelet poor plasma, and resulting plasma was stored at −20° C. until sample analysis. Rat urine samples were collected on 200 μL of 2% boric acid from animals in the IV group at 0 (overnight), 10, and 24 hours post-dose. At collection times, urine volume and water consumption was recorded. Urine samples were stored at −20° C. until sample analysis.
(§6) Plasma and urine samples were analyzed for Compound I concentration using a liquid chromatography tandem mass spectrometry (LC/MS/MS). In brief, plasma and urine samples were processed in a 96-well Captiva™ filter plate (0.2 μm, Varian, Inc., Palo Alto, Calif.). Aliquots of plasma samples were precipitated with acetonitrile containing 500 ng/mL of N-(2-(5-chloropyridin-2-ylcarbaomoyl)-4-methoxyphenyl)-4-(N,N-dimethylcarbamimidoyl)-2-fluorobenzamide, an internal standard. Aliquots of urine samples were diluted with plasma before mixing with acetonitrile containing internal standard. The mixture was vortexed and refrigerated at 4° C. for 30 minutes to allow complete protein precipitation. The mixture was filtered into a 96-well collection plate. The filtrate was injected onto a Sciex API3000 LC/MS/MS equipped with a turbo-ion spray source. Compound I and N-(2-(5-chloropyridin-2-ylcarbaomoyl)-4-methoxyphenyl)-4-(N,N-dimethylcarbamimidoyl)-2-fluorobenzamide were separated on a Thermo Hypersil-Keystone Betasil C18 column (4.6×100 mm, 5 μm; Fisher Scientific, Houston, Tex.). A mobile phase gradient mixture of 90% mobile phase A (0.5% formic acid in water) and 10% mobile phase B (0.5% formic acid in 90% acetonitrile) to 40% mobile phase B (programmed over 2.8 minutes). The peak areas of the m/z 411→250 product ion (Compound I) were measured against those of the m/z 470→342 product ion (N-(2-(5-chloropyridin-2-ylcarbaomoyl)-4-methoxyphenyl)-4-(N,N-dimethylcarbamimidoyl)-2-fluorobenzamide) in positive ion mode. The analytical range was 0.500 to 10,000 ng/mL.
(§7) Sample Compound I concentrations below the lower limit of quantitation (LLQ) were reported as <0.500 ng/mL. […]

[2] = Pharmacokinetics of Compound I in dog after intravenous and oral administration (plasma LC/MS/MS, noncompartmental analysis); format: in vivo, male beagle dogs; conditions: mean ± SD; for Vd: iv
Experimental: as §1, §2, §3, §4, §5, §6, §7

[3] = Pharmacokinetics of Compound I in rat after intravenous and oral administration (plasma and urine LC/MS/MS, noncompartmental analysis); format: in vivo, male Sprague-Dawley rats; conditions: mean ± SD; for half-life: read-out: T1/2 (terminal half-life) (converted); for Vd: iv
Experimental: as §1
Compound I was used in the rat investigation. An intravenous (IV) and oral (PO) dose of Compound I (1.0 and 10 mg/kg, respectively) was prepared. The IV dose was solubilized in 50% PEG300 to yield a final concentration of 1.0 mg/mL with a final pH of 5.13. The PO dose was suspended in 0.5% methylcellulose at a concentration of 2.0 mg/mL with a final pH of 2.70.
as §3, §4, §5, §6, §7

[4] = male, rhesus, rhesus monkey, plasma, intravenous, 1 mg/kg
[5] = male, rhesus, rhesus monkey, plasma, oral, 5 mg/kg
[6] = male, beagle, plasma, intravenous, 1 mg/kg
[7] = male, beagle, plasma, oral, 5 mg/kg
[8] = male, Sprague-Dawley, plasma, intravenous, 1 mg/kg
[9] = male, Sprague-Dawley, plasma, oral, 10 mg/kg

AUC [1, 4]: 12600 ± 6000 ng·h/mL
AUC(0-inf) [1, 4]: 12600 ± 6000 ng·h/mL
clearance ([1]; male, rhesus, rhesus monkey, plasma, intravenous, 1 mg/kg, read-out: CL (systemic clearance)): 1.66 ± 1.06 mL/min/kg
Vd ([1]; male, rhesus, rhesus monkey, plasma, 1 mg/kg, intravenous, 1 mg/kg, read-out: Vss (volume of distribution at steady-state)): 0.353 ± 0.059 L/kg
Vd ([1]; male, rhesus, rhesus monkey, plasma, 1 mg/kg, intravenous, 1 mg/kg, read-out: Vz (volume of distribution)): 2.31 ± 1.71 L/kg
AUC [1, 5]: 42100 ± 17200 ng·h/mL
AUC(0-inf) [1, 5]: 42200 ± 17200 ng·h/mL
Cmax [1, 5]: 6040 ± 1880 ng/mL
Tmax [1, 5]: 2 h
AUC/D (dose-normalized AUC(0-inf)) ([1]; oral, 5 mg/kg): 8430 ± 3449 kg·h/mL
AUC [2, 6]: 1620 ± 360 ng·h/mL
AUC(0-inf) [2, 6]: 1620 ± 363 ng·h/mL
clearance ([2]; male, beagle, plasma, intravenous, 1 mg/kg, read-out: CL (systemic clearance)): 10.7 ± 2.69 mL/min/kg
Vd ([2]; male, beagle, plasma, 1 mg/kg, intravenous, 1 mg/kg, read-out: Vss (volume of distribution at steady-state)): 0.843 ± 0.288 L/kg
Vd ([2]; male, beagle, plasma, 1 mg/kg, intravenous, 1 mg/kg, read-out: Vz (volume of distribution)): 2.73 ± 2.45 L/kg
AUC [2, 7]: 5460 ± 1470 ng·h/mL
AUC(0-inf) [2, 7]: 5480 ± 1480 ng·h/mL
Cmax [2, 7]: 2720 ± 474 ng/mL
Tmax [2, 7]: 0.583 ± 0.382 h
AUC/D (dose-normalized AUC(0-inf)) ([2]; oral, 5 mg/kg): 1095 ± 295 kg·h/mL
Dose excreted unchanged in urine ([3]; intravenous, 1 mg/kg): 0.248 ± 0.019%
AUC [3, 8]: 5380 ± 1190 ng·h/mL
AUC(0-inf) [3, 8]: 5400 ± 1160 ng·h/mL
clearance ([3]; male, Sprague-Dawley, plasma, intravenous, 1 mg/kg, read-out: CL (systemic clearance)): 3.19 ± 0.734 mL/min/kg
half-life [3, 8]: 2.86 ± 1.4 h
Vd ([3]; male, Sprague-Dawley, plasma, 1 mg/kg, intravenous, 1 mg/kg, read-out: Vss (volume of distribution at steady-state)): 0.368 ± 0.026 L/kg
Vd ([3]; male, Sprague-Dawley, plasma, 1 mg/kg, intravenous, 1 mg/kg, read-out: Vz (volume of distribution)): 0.757 ± 0.328 L/kg
AUC [3, 9]: 68500 ± 12500 ng·h/mL
AUC(0-inf) [3, 9]: 68600 ± 12500 ng·h/mL
Cmax [3, 9]: 28900 ± 2080 ng/mL
Tmax [3, 9]: 0.25 h
half-life [3, 9]: 2.72 ± 0.29 h
AUC/D (dose-normalized AUC(0-inf)) ([3]; oral, 10 mg/kg): 6859 ± 1249 kg·h/mL
SMILES: O=C(NCc1cn(-c2ccc(-n3ccccc3=O)cc2)cn1)c1ccc(Cl)s1 [Compound I, 5-chloro-N-((1-(4-(2-oxopyridin-1(2H)-yl)phenyl)-1H-imidazol-4-yl)methyl)thiophene-2-carboxamide]

Source: patent US20110160250A1, “CRYSTALLINE FORMS OF A FACTOR XA INHIBITOR” (Millennium Pharmaceuticals, Inc., priority 2009, published 2011)
